The values below come from patent EP0037318A1, “Composition, particularly useful in the treatment and prevention of dandruff and containing metallic derivatives of thiobenzoic acid” (PIERRE FABRE S.A., priority 1980, dated 1981).

Data set [1] can be described thus: Delay of auto-oxidation (Waginaire conditions): daily Ip in interesterified oil Labrafil M 1944 CS. The settings on record: rank order by delay of the auto-oxidation maximum; dose 1/10 000 in Labrafil M 1944 CS, Ip daily for 90 days at 60°C. The text has this:
(Bulletin technique SFPA n° 60) l'évolution des peroxydes se fait en trois phases : • 1) évolution lente de l'Ip (non observée avec l'acide linoléique) • 2) évolution rapide de l'Ip (deux premiers jours) • 3) stabilisation et décroissance de l'Ip.
Cette dernière période apparaît après plusieurs semaines. L'auteur attribue ce phénomène à la formation de groupements carbonyles (aldéhydes et cétones).
On obtient un profil de courbe Ip = f(t) comportant un maximum d'auto-oxydation net.
L'anti-oxydant est d'autant plus efficace que le maximum d'auto-oxydation est-retardé.

The nature of data set [2]: Anti-oxidant power: daily peroxide index (Ip) of linoleic acid containing the suspended agent. The settings on record: for INDICES DE PEROXYDES: agent at 1 % suspended in linoleic acid, stored at 60°C. How it is done: La mesure du pouvoir anti-oxydant est effectuée selon la méthode décrite par CARNAT et POURRAT (Ann. Pharm. Fr. 1979, 37, n° 3-4, p. 119-124) en remplaçant l'huile de lin par de l'acide linoléique.
L'oxydation de l'acide linoléique est suivie chaque jour par une mesure de l'indice de peroxydes Ip.
Dans un flacon contenant l'acide linoléique on ajoute 15 ml de CHC13, 20 ml d'acide acétique RP puis 1 ml de solution aqueuse saturée de KI. On agite 1 mn et on laisse reposer le flacon 5 mn à l'obscurité. Après avoir ajouté 100 ml d'eau on dose l'iode libéré par du thiosulfate de sodium 0,01 N. [formula] v = volume de Na2S2O3 versé dans le dosage v = volume de Na2S2O3 versé dans l'essai à blanc Ip est exprimé en mmoles d'oxygène/kg d'acide gras.
Remarque : v doit être voisin de O car un Ip élevé révèle une oxydation du KI par l'oxygène de l'air ou dissous dans les réactifs. Pour éviter cela, les réactifs et le solvant devront être débarrassés de l'oxygène dissous par barbotage de gaz inerte, ceci afin d'obtenir des résultats comparables.
Les différents agents anti-oxydants étudiés sont mis en suspension dans l'acide linoléique et les mélanges ainsi obtenus sont stockés à l'étuve (60°C).
Tous les jours un Ip est effectué sur les mélanges suivants : • 1 - acide thiosalicylique à 1 % • 2 - pyridine thione Zn à 1 % • 3 - thiosalicylate de Zn à 1 %.

A short description of another data set: Zinc content. In kind it is physicochemical.
The nature of data set [3]: Maximum solubility in water at 20°C, by spectroscopy.
The nature of data set [4]: Partition coefficients at 20°C. The class given is physicochemical. How it is done:
2°) Détermination des coefficients de partage à 20°C

For data set [5] the following is noted: water.

Where two headings read alike, the source gives them in different places.

As for `O=C(O)c1ccccc1S` [acide thiosalicylique], in data set [1], the Pouvoir anti-oxydant entry was “thiosalicylate de Zinc > pyrithione zinc> acide thiosalicylique”. Further, the “INDICES DE PEROXYDES” value is 0,8 millimoles D2 pour 1000 g d'acide linoléique in data set [2] (0 (start)); 117,2 millimoles D2 pour 1000 g d'acide linoléique in data set [2] (1 jour); 191,9 millimoles D2 pour 1000 g d'acide linoléique in data set [2] (2 jours); 202,7 millimoles D2 pour 1000 g d'acide linoléique in data set [2] (3 jours); 204,2 millimoles D2 pour 1000 g d'acide linoléique in data set [2] (4 jours).
Take `[O-][n+]1ccccc1[S-].[O-][n+]1ccccc1[S-].[Zn+2]` [pyrithione zinc]: the Pouvoir anti-oxydant result in data set [1] is “thiosalicylate de Zinc > pyrithione zinc> acide thiosalicylique”. For the same compound, in “Zinc content”, the “% Zinc” value was 20,5%. Besides, the “Solubilité maximum dans l'eau” value in data set [3] was found to be 2 mg % ml. The “INDICES DE PEROXYDES” value in data set [2] (0 (start)) is given as 0,7 millimoles D2 pour 1000 g d'acide linoléique; in data set [2] (1 jour) it was 98 millimoles D2 pour 1000 g d'acide linoléique; in data set [2] (2 jours), 174,1 millimoles D2 pour 1000 g d'acide linoléique; in data set [2] (3 jours), 177,6 millimoles D2 pour 1000 g d'acide linoléique; in data set [2] (4 jours) it was 183,7 millimoles D2 pour 1000 g d'acide linoléique. The “Valeurs de P” value in data set [4] (CHCl3 - eau) is given as 0,30; in data set [4] (Octanol-eau) it was 0,64.
With “chloro-5-thiosalicylate de zinc [Exemple 9]”, the “% Zinc” value in “Zinc content” is given as 25,7%.
On to “méthoxy-4-thiosalicylate de zinc [Exemple 8]”, for which the “% Zinc” value in “Zinc content” is listed as 26,3%.
On the same count and under the same terms, the value for “ortho thiocrésotinate de zinc [Exemple 7]” was 28,1%.
Consider thiosalicylate de zinc [Exemple 1], for which the Pouvoir anti-oxydant result in data set [1] is on record as “thiosalicylate de Zinc > pyrithione zinc> acide thiosalicylique”. In “Zinc content”, the “% Zinc” value is on record as 30%. In addition, the “Solubilité maximum dans l'eau” value in data set [5] is 1,80 mg % ml. Further, the “INDICES DE PEROXYDES” value in data set [2] (0 (start)) was 0,6 millimoles D2 pour 1000 g d'acide linoléique; in data set [2] (1 jour), 45,5 millimoles D2 pour 1000 g d'acide linoléique; in data set [2] (2 jours) it was 84,4 millimoles D2 pour 1000 g d'acide linoléique; in data set [2] (3 jours), 99,5 millimoles D2 pour 1000 g d'acide linoléique; in data set [2] (4 jours), 103,9 millimoles D2 pour 1000 g d'acide linoléique. Also, the activité anti-oxydante result in data set [2] (in words, compared with pyrithione zinc) is listed as “excellente”. Moreover, the “Valeurs de P” value in data set [4] (CHCl3 - eau) is on record as 0,05; in data set [4] (Octanol-eau) it was 0,21.
